Test results taken from a melting point compilation (Tetko et al.; mined from patent text by program, amines drawn as free bases though some values may be those of a salt).

Compared with `COc1cc(NC(=O)c2ccc(Cl)cc2)c(C(N)=O)cc1OC`, `CCN(c1ccc(Cl)cc1C(N)=O)S(=O)(=O)c1ccc(C)cc1` is higher in melting point: 120 to 122 °C for the first, 148 to 150 °C for the second.

First: O=C(O)c1ccc(Cl)c(S)c1
Second: O=C(O)c1ccc(-c2ncc(-c3ccc(Cl)cc3)s2)cc1
The melting point of the first is lower: 209 to 211 °C for the first, > 300 °C for the second.

Compared with `C=CCC(O)c1ccc2ccccc2c1` (stereo not drawn), `O=Cc1c2ccccc2cc2c(Cl)cccc12` is higher in melting point: 35 to 39 °C for the first, 129 to 131 °C for the second.

Compared with `O=C(O)c1cc([N+](=O)[O-])cc2ccccc12`, `C=CCNC(=O)c1ccc([N+](=O)[O-])cc1Br` is lower in melting point: 255 to 257 °C for the first, 98 to 100 °C for the second.

First: Clc1nc2ccccc2n2cnc(-c3nc(C4CC4)no3)c12
Second: O=S1CCN(c2nc3c(-c4nc(C5CC5)no4)ncn3c3ccccc23)CC1
The melting point of the first is lower: 166 to 168 °C for the first, 293 to 294 °C for the second.

First: Cc1cccc(CNc2c(NC(C)(C)C)c(=O)c2=O)c1C
Second: Cc1cccc(NC(=O)NC2CN(C(=O)C(C)(C)C)c3ccccc3N(CC(C)C)C2=O)c1 (stereo not drawn)
The melting point of the first is higher: 237 to 239 °C for the first, 152 °C for the second.

Compared with `CC1CCN(c2cc3nc(C(C)(C)C)sc3cc2NC(=S)Oc2ccccc2)CC1`, `COc1ccccc1N1CCN(C(=O)Nc2cc(C(C)O)c(C)nc2OC)CC1` (stereo not drawn) is lower in melting point: 201 to 205 °C for the first, 88 to 90 °C for the second.

First: CNc1nc2ccccc2c(-c2ccccc2)c1C(=O)N(C)Cc1cc(C(F)(F)F)cc(C(F)(F)F)c1
Second: Nc1cc(-c2ccccc2)nn1-c1c(Cl)cc(C(F)(F)F)cc1Cl
The melting point of the first is higher: 173 to 174 °C for the first, 142 °C for the second.

First: Nc1nc2ccc(S(=O)(=O)n3c(CCCC(=O)O)cc4nc(Cl)ccc43)cc2o1
Second: CON=Cc1nc2c(N)nc3cc(-c4cccc(CS(N)(=O)=O)c4)ccc3c2s1
The melting point of the first is higher: 273 °C for the first, 254 to 256 °C for the second.

First: C=CCN(CC=C)Cc1noc(-c2ncn3c2[C@@H]2CCN2C(=O)c2c(Cl)cccc2-3)n1
Second: C=CCN(CC=C)c1nc(NC(=O)COC)n2oc(=O)nc2n1
The melting point of the first is higher: 190 to 192 °C for the first, 135 to 136 °C for the second.

Compared with `O=C1CC2(CCCCC2)CC(=O)N1c1ccncc1`, `NC(=O)c1ccc(N2CCN(c3ccncc3)CC2)cc1` is higher in melting point: 213 to 215 °C for the first, 327 to 330 °C for the second.

First: COc1cccc([C@H]2O[C@H](CC(=O)Nc3ccc4[nH]c(C(=O)O)cc4c3)C(=O)N(CC(C)(C)CO)c3ccc(Cl)cc32)c1OC
Second: COc1c(/C=C/C(=O)Nc2ccccc2)c(=O)c2ccc(Cl)cc2[nH]c1=O
The melting point of the first is lower: 200 to 201 °C for the first, 215 to 217 °C for the second.

First: COC(=O)c1cc(Br)cc(-c2ccc3c(c2)C(C)(C)CCC3(C)C)c1
Second: COc1cc2c(c3c1OC(C)(C)C3)C(c1cccc(O)c1)=NC(C)(C)C2
The melting point of the first is lower: 88 °C for the first, 208 to 209 °C for the second.

First: O=[N+]([O-])c1cc(-c2ccncc2)ccc1O
Second: COc1cccc2c1CN(Nc1ccncc1)C2
The melting point of the first is higher: 210 to 212 °C for the first, 144 to 146 °C for the second.

First: CC1=NN=C(c2ccc(NC(=O)CN(C)C)cc2)c2cc3c(cc2C1)OCO3
Second: COc1ccccc1C(=O)Nc1ccc(COc2ccc3c(c2)CCC(CN(C)C)C3)cc1 (stereo not drawn)
The melting point of the first is higher: 211 to 213 °C for the first, 106 to 108 °C for the second.

Compared with `Cc1nc(Cc2ccccc2)c2c(c1O)COC(C(C)C)OC2` (stereo not drawn), `CCOC(=O)c1sc(Cc2ccccc2)nc1O` is lower in melting point: 193 to 194 °C for the first, 97 to 98 °C for the second.

First: CC(C)c1nc2ccccc2n1CCCCCSc1nc(-c2ccc(N(C)C)cc2)c(-c2ccc(N(C)C)cc2)[nH]1
Second: CCONC(=O)c1ccc(-c2cccc(CN(C)CCCc3ccccc3)c2)cn1
The melting point of the first is higher: 110 to 112 °C for the first, 50 to 55 °C for the second.

First: CC(C)c1cc(C(=O)CI)cc(C(C)C)c1O
Second: CCCS(=O)(=O)N[C@@H](CC(C)C)C(=O)N[C@@H](C(C)C)[C@@H](O)c1c(-c2ccccc2)c1=O
The melting point of the first is lower: 127 to 128 °C for the first, 195 to 196 °C for the second.

Compared with `C[Si](C)(C)CCCCCC1=C(O)C(=O)c2ccccc2C1=O`, `Cc1ccccc1NC(=O)c1c(Br)cccc1[Si](C)(C)C` is higher in melting point: 73 to 75 °C for the first, 113 to 115 °C for the second.

First: CCOC(=O)CCCN1C(=O)N(c2ccc(C#N)c(C(F)(F)F)c2)C(=O)C12CCOCC2
Second: COCCOC(=O)Cc1cc(Oc2ccc(C(F)(F)F)cc2Cl)ccc1[N+](=O)[O-]
The melting point of the first is higher: 129 to 130 °C for the first, 71.9 to 72.5 °C for the second.

First: O=C1CC(=O)[C@H](CC2CCCCC2)N1
Second: O=S1(=O)N=CN(C2CCCCCCC2)c2ccc(Cl)cc21
The melting point of the first is lower: 165 to 167 °C for the first, 235 to 237 °C for the second.

First: CCN1C(=O)CCC(C)(C)c2cc(Nc3ncc(Cl)c(N[C@H]4[C@@H](C(N)=O)[C@@H]5C=C[C@H]4C5)n3)c(OC)cc21
Second: COC(=O)c1ccccc1-n1c(CCl)nc2c(OC)cccc2c1=O
The melting point of the first is lower: 156 to 166 °C for the first, 208 to 210 °C for the second.

First: Nc1cc(C(c2cc(F)ccc2F)S(=O)(=O)c2ccc(Cl)cc2)c(Cl)cn1 (stereo not drawn)
Second: NS(=O)(=O)c1ccc(C2=C(c3ccc(-c4cscn4)cc3)C(=O)OC2)cc1F
The melting point of the first is lower: 147 to 150 °C for the first, 194 °C for the second.

First: OC(CNc1ccnc2ccccc12)c1ccccc1 (stereo not drawn)
Second: O=C(O)Cn1c(Cc2ccccc2)ccc1-c1ccccc1
The melting point of the first is higher: 289 to 290 °C for the first, 137 to 139 °C for the second.

First: CCOC(=O)C(=NOC1CCCCO1)c1csc(NC(c2ccccc2)(c2ccccc2)c2ccccc2)n1 (stereo not drawn)
Second: O=C(O)COc1cccc2c1OCc1sc(SCCC(c3ccccc3)c3ccccc3)nc1-2
The melting point of the first is higher: 184 °C for the first, 112 to 114 °C for the second.

Compared with `CCOc1cc(CO)ccc1OCc1nc(-c2ccccc2)oc1C`, `Cc1c(-c2ccccc2)nc2ccc(-c3cccc(CO)c3)cn12` is higher in melting point: 130 to 131 °C for the first, 222 to 223 °C for the second.

First: N#Cc1cccc(CN2C(=O)C3(COc4cc5c(cc43)OCCO5)c3ccccc32)c1 (stereo not drawn)
Second: N#Cc1cc(C2=Nc3cc(O)c(-c4ccccc4F)cc3NC(=O)C2)ccn1
The melting point of the first is lower: 94 to 96 °C for the first, > 250 °C for the second.

Compared with `CCOC(=O)c1nc2n(c(=O)c1OCc1ccccc1)CCCC2`, `CCOC(=O)c1cnn2c1c(NC1CC1)nc1ccccc12` is higher in melting point: 151 °C for the first, 167 to 169 °C for the second.

First: N#CN=c1[nH]c2c([N+](=O)[O-])c(Cl)c(Cl)cc2nc1Cl
Second: Cc1ccc2c([N+](=O)[O-])c(Cl)ccc2n1
The melting point of the first is higher: 245 to 255 °C for the first, 123 to 124 °C for the second.

First: O=C(c1cccnc1)N1CCC(c2cccc(Cl)c2)=N1
Second: CNC(=O)c1cnn(-c2cccc(Cl)c2)c1Cl
The melting point of the first is lower: 124 to 126 °C for the first, 163 to 165 °C for the second.

Compared with `CNC(=O)Nc1nc(C(C)c2ccc(-c3ccccc3)c(F)c2)cs1` (stereo not drawn), `CCN(Cc1csc(N)c1C(=O)c1ccc(Cl)cc1)c1ccccc1` is lower in melting point: 208 to 209 °C for the first, 130 to 132 °C for the second.

Compared with `CC(=O)NC[C@H]1CN(c2ccc(N3CCC4(CC3)CC4(C#N)C#N)cc2)C(=O)O1`, `CCOc1ccc(N2CCN(c3c(C)c4c(c(OCC)c3C)OC(C)C4)CC2)cc1` (stereo not drawn) is lower in melting point: 172 to 174 °C for the first, 121 to 122 °C for the second.

Compared with `CN(C(=O)/C=C/c1ccco1)c1ccc(S(=O)(=O)NC2CCCCCC2)cc1`, `CC(C)CNC(=O)C(O)C(CC1CCCCC1)NC(=O)C(Cc1c[nH]cn1)NC(=O)C(CC(=O)N1CCOCC1)Cc1cccc2ccccc12` (mixture of isomers) is lower in melting point: 152 to 155 °C for the first, 119 to 125 °C for the second.

First: O=c1oc2c(c(O)c1C(c1ccccc1)C1CC1)CCCCC2CC1CC1 (stereo not drawn)
Second: O[C@H]1CC[C@H](Nc2nccc(-n3nnc4ccccc43)n2)CC1
The melting point of the first is lower: 77 to 83 °C for the first, 225 to 228 °C for the second.

Compared with `CCCCCCCCNC1=NS(=O)(=O)c2cc(Cl)cnc2N1`, `CN(CCO)c1nc(N)nc(-c2cc(Cl)ccc2Cl)n1` is lower in melting point: 170 to 175 °C for the first, 153 to 155 °C for the second.

Compared with `O=c1c2ccccc2nc(-c2sc(Nc3ccc(Cl)cc3)nc2-c2ccccc2)n1-c1ccccc1`, `Cc1oc(-c2cccc(-c3nc(CC(=O)OCc4ccccc4)c(C)o3)c2)nc1CC(=O)OCc1ccccc1` is lower in melting point: > 275 °C for the first, 98 to 100 °C for the second.

First: CCc1ccc(Nc2ncc(Cc3ccc(OC)nc3)c3ncccc23)cc1Br
Second: COc1ccc(CNC(=O)c2cc3c(=O)n(CCOc4ccc(Br)cc4)c(=O)n(C)c3s2)cc1
The melting point of the first is lower: 142 to 146 °C for the first, 184 to 185 °C for the second.

First: COc1ncnc(OC)c1NC(=O)c1cccs1
Second: COC(=O)C1CSC(c2cc3ccccc3[nH]2)=N1 (stereo not drawn)
The melting point of the first is higher: 198 to 200 °C for the first, 141 to 142 °C for the second.

Compared with `Cc1nnsc1C(=O)Nc1ccc(-n2nc(C(F)(F)F)cc2C2CC2)cc1`, `O=C(Nc1ccc(-n2nc(C(F)(F)F)cc2C(F)(F)F)cc1)c1cccc(Cl)c1F` is higher in melting point: 84 to 89 °C for the first, 113 to 116 °C for the second.

First: CC1(Cc2ccccc2)CCCNC1=O (stereo not drawn)
Second: O=C1NC2(CCc3ccccc32)c2ccccc21 (stereo not drawn)
The melting point of the first is lower: 76 to 78 °C for the first, 205 to 206 °C for the second.

First: COC1=Nc2ccc(Cl)cc2N(c2ccccc2)C(=O)C1
Second: CC(C)Oc1cccc(-n2c(=S)[nH]c3ccccc3c2=O)c1
The melting point of the first is lower: 136 to 138 °C for the first, 288 to 290 °C for the second.

Compared with `CCOc1ccc(-n2cccc2-c2ccc(S(N)(=O)=O)cc2)cc1`, `Cn1c(COc2cccc(N)c2)nc2ccccc21` is higher in melting point: 126 to 128 °C for the first, 149 to 153 °C for the second.

First: O=C(NC1CCN(CCCCc2ccccc2)C1)C12CC3CC(CC(C3)C1)C2 (stereo not drawn)
Second: Cc1nc(-c2ccc(N3CC(CN4CCN(C(CC(=O)OCc5ccccc5)C(=O)OCc5ccccc5)CC4)OC3=O)cc2)no1 (stereo not drawn)
The melting point of the first is lower: 82 to 84 °C for the first, 119 °C for the second.

Compared with `CSC(=N)N(c1ccccc1)c1ccccc1`, `Brc1ccc(/C=N/c2ccccc2)c(OCc2ccccc2)c1` is lower in melting point: 104 to 106 °C for the first, 100 °C for the second.

First: CCOC(=O)COc1ccc(C2=CC(=O)CCC2CC)c(Cl)c1Cl (stereo not drawn)
Second: COCC(=O)OC1(C(=O)CO)CCC2C3CCC4=CC(=O)CCC4(C)C3C(O)CC21C (stereo not drawn)
The melting point of the first is lower: 110 to 112 °C for the first, 185 °C for the second.

First: CN(C)CCOc1ccc(Nc2ncc3c(n2)N(C)C(=O)N(c2c(Cl)cccc2Cl)C3)cc1
Second: COc1cc(Nc2nccc(Sc3ccccc3)n2)cc(OC)c1OC
The melting point of the first is higher: 173 to 174 °C for the first, 110 °C for the second.

Compared with `O=C(O)CCC1CNC(=O)CC1c1ccc(F)cc1` (stereo not drawn), `Cc1cc(C)c(NC(=O)NC2CC2c2ccc(-c3ncn(-c4ccc(OC(F)(F)F)cc4)n3)cc2)c(C)c1` (stereo not drawn) is higher in melting point: 139 to 141 °C for the first, 254 to 256 °C for the second.

Compared with `CC1(C)c2cc(C#N)ccc2OC1OC(=O)CCl` (stereo not drawn), `C=Cc1ccc2nnn(OS(C)(=O)=O)c2c1` is lower in melting point: 138 °C for the first, 129 to 130 °C for the second.

Compared with `FC(F)(F)c1cccc(CSc2nnc(-c3ncnc4[nH]ccc34)o2)c1`, `BrCCOc1ccc(Cn2cccn2)cc1` is lower in melting point: 199 to 200 °C for the first, 63 to 65 °C for the second.
